# Tests used:
# ErbB2 (HER2) = ErbB2 (HER2) (Homo sapiens, UniProt P04626); conditions: reported in literature; cited from earlier work
# ErbB4 (HER4) = ErbB4 (HER4) (Homo sapiens, UniProt Q15303); conditions: reported in literature; cited from earlier work
# EGFR (ErbB1) = EGFR (ErbB1) (Homo sapiens, UniProt P00533); conditions: reported in literature; cited from earlier work
# MKN45 = assay: In vitro cell growth inhibition (CCK-8), cMet gene-amplified gastric cancer cell line MKN45; type: cell-based, human; conditions: 72 hours
# Description: (§1) Five types of cell lines (NUGC4, GCIY, MKN7, GCR1 and MKN45) were subcultured in the RPMI 1640 culture medium containing 10% concentration of fetal bovine serum, 100 units/mL concentration of penicillin, and 100 units/mL concentration of antibiotic streptomycin, and used in the following experiments. The cells were periodically examined for the presence of mycoplasma infection by using MycoAlert Mycoplasma Detection Kit (Lonza). Cell growth was measured by using Cell Counting Kit-8 (CCK-8) (Dojin Kagaku Kenkyusho, Kumamoto, Japan) (Ishiyama M., et al., […], 44; 1299:1997). The cells were inoculated at a density of 5×10^4 cells/mL in a volume of 100 μL per well, and incubated at 37° C. for 24 hours in an incubator. Then, any one of three types of cell growth factors, amphiregulin (AP, 100 ng/mL, R&D Systems, Minneapolis, Minn.), heparin-binding EGF-like growth factor (HB-EGF), and hepatocyte growth factor (HGF, 50 ng/mL, R&D Systems), and any one of two types of the EGFR inhibitors, AZ5104 (0.001 to 10 μM) and AST1306 (0.001 to 10 μM)), were added to each well, and the cells were further incubated at 37° C. for 72 hours in an incubator. In addition, to the control wells, any one of the three types of cell growth factors was added, but not the EGFR inhibitor. […] Absorbance was measured at a wavelength of 450 nm by using a microplate reader (BIO-RAD Laboratories, Inc.). […]
# cancer patients = conditions: among 55 evaluable cancer patients, phase I; cited from earlier work
# [1] = system: ErbB2-overexpressing cells; conditions: Hua Xie et al.; cited from earlier work
# [2] = system: normal human gastric fibroblasts; assay: In vitro growth inhibition test for fibroblasts (cell count); type: cell-based; conditions: HB-EGF 10 ng/mL, EGF receptor inhibitor 1 μM, 96 hours
# MKN7 = assay: In vitro cell growth inhibition (CCK-8), non-diffuse gastric cancer cell line MKN7; type: cell-based, human; conditions: HGF 50 ng/mL, 72 hours
# Description: as §1
# GCIY = assay: In vitro cell growth inhibition (CCK-8), diffuse gastric cancer cell line GCIY; type: cell-based, human; conditions: 72 hours; for HB-EGF-induced cell growth of GCIY / HGF-induced cell growth of GCIY / amphiregulin-induced cell growth of GCIY: inhibitor 0.001 to 10 μM; for HGF-induced cell growth of GCIY: HGF 50 ng/mL; for amphiregulin-induced cell growth of GCIY: amphiregulin 100 ng/mL; for baseline cell growth of GCIY: no growth factor added
# Description: (§2) Five types of cell lines (NUGC4, GCIY, MKN7, GCR1 and MKN45) were subcultured in the RPMI 1640 culture medium containing 10% concentration of fetal bovine serum, 100 units/mL concentration of penicillin, and 100 units/mL concentration of antibiotic streptomycin, and used in the following experiments. The cells were periodically examined for the presence of mycoplasma infection by using MycoAlert Mycoplasma Detection Kit (Lonza). Cell growth was measured by using Cell Counting Kit-8 (CCK-8) (Dojin Kagaku Kenkyusho, Kumamoto, Japan) (Ishiyama M., et al., […], 44; 1299:1997). The cells were inoculated at a density of 5×10^4 cells/mL in a volume of 100 μL per well, and incubated at 37° C. for 24 hours in an incubator. Then, any one of three types of cell growth factors, amphiregulin (AP, 100 ng/mL, R&D Systems, Minneapolis, Minn.), heparin-binding EGF-like growth factor (HB-EGF), and hepatocyte growth factor (HGF, 50 ng/mL, R&D Systems), and any one of two types of the EGFR inhibitors, AZ5104 (0.001 to 10 μM) and AST1306 (0.001 to 10 μM)), were added to each well, and the cells were further incubated at 37° C. for 72 hours in an incubator. In addition, to the control wells, any one of the three types of cell growth factors was added, but not the EGFR inhibitor. Further, 10 μL of a WST-8 solution was added to each well, and the cells were cultured at 37° C. for 4 hours. Absorbance was measured at a wavelength of 450 nm by using a microplate reader (BIO-RAD Laboratories, Inc.). All the experiments were performed in triplicate, that is, the same experiment was repeated three times.
# NUGC4 = assay: In vitro cell growth inhibition (CCK-8), diffuse gastric cancer cell line NUGC4; type: cell-based, human; conditions: inhibitor 0.001 to 10 μM, 72 hours; for HGF-induced cell growth of NUGC4: HGF 50 ng/mL; for amphiregulin-induced cell growth of NUGC4: amphiregulin 100 ng/mL
# Description: as §2
# [3] = system: EGFR-overexpressing tumor xenograft; conditions: Hua Xie et al.; cited from earlier work
# [4] = system: FVB-2/Nneu transgenic breast cancer; conditions: Hua Xie et al.; cited from earlier work
# GCR-1 = assay: In vitro cell growth inhibition (CCK-8), non-diffuse gastric cancer cell line GCR-1; type: cell-based, human; conditions: HGF 50 ng/mL, 72 hours
# Description: as §1
# [5] = system: ErbB2-overexpressing adenocarcinoma xenograft; conditions: Hua Xie et al.; cited from earlier work
# mutant EGFR = conditions: reported in literature; cited from earlier work
# [6] = system: Diffuse gastric cancer cells (NUGC4 cells); assay: In vivo test: survival of mice intraperitoneally transplanted with NUGC4 cells; parameters: species or system Balb/c nu/nu mice; conditions: for mice alive 11 weeks after the gastric cancer cell transplantation / mice alive seven weeks after the gastric cancer cell transplantation: eight mice per therapy, treatment from day 21, AZ5104/osimertinib 10 mg/kg once a day oral, savolitinib 2.5 mg/kg once a day oral, antibody 40 mg/kg twice a week intraperitoneal; for t-test for numbers of mice alive 11 weeks after transplantation compared with the control group: p<0.05
# Description: The anti-VEGF receptor 2 antibody used was anti-mouse VEGF receptor 2 antibody DC101 (GeneTex).
# Diffuse gastric cancer cells (NUGC4 cells) were transplanted to Balb/c nu/nu mice (6 weeks old) by intraperitoneal administration of 2×10^6 of the cells in 200 μL of phosphate buffered saline (PBS) per mouse. On day 21 after the transplantation, ascites accumulation was confirmed, and treatment was started. The treatment was performed with the following eight kinds of therapies, and eight mice were used for each therapy.
# For the control group (vehicle control), only a solution not dissolving any drug was administered once a week. The administration was continued for 4 weeks, and then for another 4 weeks.
# [7] = system: non-small cell lung cancer with EGFR EX20Ins mutation; conditions: Floc'h et al.; cited from earlier work
# ErbB4 (HER4), sequence (Q15303 26-1308): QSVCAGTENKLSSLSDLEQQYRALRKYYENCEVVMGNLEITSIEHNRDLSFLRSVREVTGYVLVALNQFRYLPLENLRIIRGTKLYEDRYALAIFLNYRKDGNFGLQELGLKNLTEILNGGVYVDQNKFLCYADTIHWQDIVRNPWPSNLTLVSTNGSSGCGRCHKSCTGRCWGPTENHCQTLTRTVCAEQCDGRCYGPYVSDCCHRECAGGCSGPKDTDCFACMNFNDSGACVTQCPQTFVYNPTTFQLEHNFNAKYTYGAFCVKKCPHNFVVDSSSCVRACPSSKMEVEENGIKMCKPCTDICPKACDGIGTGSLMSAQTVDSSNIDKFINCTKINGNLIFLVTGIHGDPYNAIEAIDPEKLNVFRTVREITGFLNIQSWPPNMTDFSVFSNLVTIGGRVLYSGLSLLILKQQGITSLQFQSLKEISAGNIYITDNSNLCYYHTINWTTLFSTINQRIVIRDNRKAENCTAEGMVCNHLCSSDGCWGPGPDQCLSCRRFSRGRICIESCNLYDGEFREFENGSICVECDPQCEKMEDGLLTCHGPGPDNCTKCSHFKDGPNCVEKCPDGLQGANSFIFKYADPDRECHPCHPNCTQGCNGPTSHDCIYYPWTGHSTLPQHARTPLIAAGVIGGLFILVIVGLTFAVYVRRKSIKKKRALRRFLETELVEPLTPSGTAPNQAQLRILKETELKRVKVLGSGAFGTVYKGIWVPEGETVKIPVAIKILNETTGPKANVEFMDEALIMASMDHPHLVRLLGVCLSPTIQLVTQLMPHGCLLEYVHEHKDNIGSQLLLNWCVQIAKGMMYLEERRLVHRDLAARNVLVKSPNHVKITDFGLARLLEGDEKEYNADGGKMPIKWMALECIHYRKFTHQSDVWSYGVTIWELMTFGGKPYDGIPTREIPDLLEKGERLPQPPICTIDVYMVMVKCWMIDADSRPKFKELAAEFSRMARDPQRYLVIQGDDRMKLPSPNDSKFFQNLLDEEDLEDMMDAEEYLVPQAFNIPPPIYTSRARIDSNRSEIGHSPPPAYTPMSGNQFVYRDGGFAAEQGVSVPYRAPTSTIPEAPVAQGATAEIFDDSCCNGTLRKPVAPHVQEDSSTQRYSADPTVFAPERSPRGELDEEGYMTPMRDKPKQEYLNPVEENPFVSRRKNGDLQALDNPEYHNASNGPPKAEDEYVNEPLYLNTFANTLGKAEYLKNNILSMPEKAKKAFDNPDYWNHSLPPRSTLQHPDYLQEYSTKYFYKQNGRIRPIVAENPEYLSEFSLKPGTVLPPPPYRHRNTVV
# ErbB2 (HER2), sequence (P04626 23-1255): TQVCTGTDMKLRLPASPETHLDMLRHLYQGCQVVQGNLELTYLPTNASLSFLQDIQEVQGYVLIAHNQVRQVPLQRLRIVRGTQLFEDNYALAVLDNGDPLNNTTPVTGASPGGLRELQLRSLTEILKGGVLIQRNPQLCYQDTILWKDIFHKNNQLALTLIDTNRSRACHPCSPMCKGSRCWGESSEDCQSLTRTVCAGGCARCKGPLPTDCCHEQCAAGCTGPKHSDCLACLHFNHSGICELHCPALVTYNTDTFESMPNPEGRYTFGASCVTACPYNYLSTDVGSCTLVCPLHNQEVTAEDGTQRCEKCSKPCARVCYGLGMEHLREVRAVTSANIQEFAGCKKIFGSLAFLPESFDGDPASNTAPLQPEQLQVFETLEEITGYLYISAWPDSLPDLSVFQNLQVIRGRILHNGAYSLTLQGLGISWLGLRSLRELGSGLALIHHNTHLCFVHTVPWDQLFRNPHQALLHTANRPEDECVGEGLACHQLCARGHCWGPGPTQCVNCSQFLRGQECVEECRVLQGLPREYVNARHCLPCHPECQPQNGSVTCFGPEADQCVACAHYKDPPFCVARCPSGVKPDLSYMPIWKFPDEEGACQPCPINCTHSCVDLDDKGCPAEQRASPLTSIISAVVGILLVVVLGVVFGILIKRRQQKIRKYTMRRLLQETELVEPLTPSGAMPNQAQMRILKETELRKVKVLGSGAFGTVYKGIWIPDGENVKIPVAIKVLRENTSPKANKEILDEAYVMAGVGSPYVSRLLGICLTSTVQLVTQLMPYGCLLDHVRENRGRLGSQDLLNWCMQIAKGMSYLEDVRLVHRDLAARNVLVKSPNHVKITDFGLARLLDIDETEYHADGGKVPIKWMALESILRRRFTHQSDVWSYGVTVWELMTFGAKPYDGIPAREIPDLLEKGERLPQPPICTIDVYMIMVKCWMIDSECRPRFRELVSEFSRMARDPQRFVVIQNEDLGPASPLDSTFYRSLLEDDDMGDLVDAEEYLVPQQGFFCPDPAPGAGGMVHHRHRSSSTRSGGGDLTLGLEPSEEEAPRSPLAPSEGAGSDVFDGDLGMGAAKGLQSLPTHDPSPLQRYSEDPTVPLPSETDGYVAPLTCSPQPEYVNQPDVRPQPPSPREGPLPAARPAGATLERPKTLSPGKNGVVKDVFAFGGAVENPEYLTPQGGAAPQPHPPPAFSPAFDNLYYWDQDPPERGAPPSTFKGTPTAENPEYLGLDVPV
# EGFR (ErbB1), sequence (P00533 25-1210): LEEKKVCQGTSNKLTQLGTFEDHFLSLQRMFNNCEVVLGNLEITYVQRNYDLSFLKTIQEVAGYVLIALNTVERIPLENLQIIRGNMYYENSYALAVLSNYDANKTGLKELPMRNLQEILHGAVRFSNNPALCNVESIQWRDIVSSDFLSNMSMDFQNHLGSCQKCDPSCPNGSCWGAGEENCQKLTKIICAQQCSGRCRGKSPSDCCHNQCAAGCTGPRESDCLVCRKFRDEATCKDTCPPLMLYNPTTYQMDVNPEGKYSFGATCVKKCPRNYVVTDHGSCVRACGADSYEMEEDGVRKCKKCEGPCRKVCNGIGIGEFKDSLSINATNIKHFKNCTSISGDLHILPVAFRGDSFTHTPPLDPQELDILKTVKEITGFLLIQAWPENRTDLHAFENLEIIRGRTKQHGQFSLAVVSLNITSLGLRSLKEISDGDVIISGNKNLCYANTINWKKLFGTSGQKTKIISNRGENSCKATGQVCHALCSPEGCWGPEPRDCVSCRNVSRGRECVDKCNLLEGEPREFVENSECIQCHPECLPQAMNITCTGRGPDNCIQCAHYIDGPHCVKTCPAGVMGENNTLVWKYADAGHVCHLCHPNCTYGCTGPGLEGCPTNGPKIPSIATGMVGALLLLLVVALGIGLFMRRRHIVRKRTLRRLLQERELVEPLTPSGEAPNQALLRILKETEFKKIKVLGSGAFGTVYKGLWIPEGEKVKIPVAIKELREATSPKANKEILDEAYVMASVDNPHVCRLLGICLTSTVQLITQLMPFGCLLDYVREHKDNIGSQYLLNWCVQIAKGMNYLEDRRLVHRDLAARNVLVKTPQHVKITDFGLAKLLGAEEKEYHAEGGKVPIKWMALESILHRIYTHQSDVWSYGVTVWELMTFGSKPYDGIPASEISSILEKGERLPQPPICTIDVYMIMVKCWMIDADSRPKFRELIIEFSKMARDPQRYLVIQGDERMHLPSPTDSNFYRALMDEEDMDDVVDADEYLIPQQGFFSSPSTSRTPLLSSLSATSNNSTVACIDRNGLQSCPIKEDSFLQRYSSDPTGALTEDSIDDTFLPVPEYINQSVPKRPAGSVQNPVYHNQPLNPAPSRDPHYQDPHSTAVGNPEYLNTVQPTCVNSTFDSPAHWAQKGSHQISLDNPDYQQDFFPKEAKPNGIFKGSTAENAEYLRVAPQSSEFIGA
smiles,measurement,setting,value
"Cc1c(NC(=O)OC[C@@H]2COCCN2)cn2ncnc(Nc3ccc4c(cnn4Cc4cccc(F)c4)c3)c12 [AC480, (S)-morpholin-3-ylmethyl 4-(1-(3-fluorobenzyl)-1H-indazol-5-ylamino)-5-methylpyrrolo[1,2-f][1,2,4]triazine-6-carbamate]",inhibition of ErbB2 (HER2),ErbB2 (HER2),inhibit
same,inhibition of ErbB4 (HER4),ErbB4 (HER4),inhibit
same,inhibition of EGFR (ErbB1),EGFR (ErbB1),inhibit
"CCN1CCN(Cc2ccc(-c3cc4c(N[C@H](C)c5ccccc5)ncnc4[nH]3)cc2)CC1 [AEE788, (R)-6-(4-((4-ethylpiperazin-1-yl)methyl)phenyl)-N-(1-phenylethyl)-7H-pyrrolo[2,3-d]pyrimidin-4-amine]",inhibition of ErbB2 (HER2),ErbB2 (HER2),inhibit
same,inhibition of ErbB4 (HER4),ErbB4 (HER4),inhibit
same,inhibition of EGFR (ErbB1),EGFR (ErbB1),inhibit
"C=CC(=O)Nc1ccc2ncnc(Nc3ccc(OCc4cccc(F)c4)c(Cl)c3)c2c1.Cc1ccc(S(=O)(=O)O)cc1 [AST1306, 2-propenamide, N-[4-[[3-chloro-4-[(3-fluorophenyl)methoxy]phenyl]amino]-6-quinazolinyl]-, 4-methylbenzenesulfonate (1:1)]",concentration at which cell growth of MKN45 was inhibited,MKN45,≥ 1 µM
same,partial remission,cancer patients,7 patients
same,stability (stability over 6 months or longer),cancer patients,7 patients
same,inhibition of ErbB2 (HER2),ErbB2 (HER2),irreversible inhibitor
same,growth inhibitory effect in ErbB2-overexpressing cells,[1],more potent
same,HB-EGF-induced cell growth of normal human gastric fibroblasts,[2],inhibited
same,inhibition of ErbB4 (HER4),ErbB4 (HER4),irreversible inhibitor
same,concentration at which HGF-induced cell growth of MKN7 was inhibited,MKN7,≥ 0.3 µM
same,HB-EGF-induced cell growth of GCIY,GCIY,inhibited
same,HGF-induced cell growth of GCIY,GCIY,inhibited
same,amphiregulin-induced cell growth of GCIY,GCIY,inhibited
same,baseline cell growth of GCIY,GCIY,inhibited
same,HB-EGF-induced cell growth of NUGC4,NUGC4,inhibited
same,HGF-induced cell growth of NUGC4,NUGC4,inhibited
same,amphiregulin-induced cell growth of NUGC4,NUGC4,inhibited
same,tumor growth in EGFR-overexpressing tumor xenografted mice,[3],weakly inhibited
same,tumor growth in FVB-2/Nneu transgenic breast cancer mice,[4],potently inhibited
same,inhibition of EGFR (ErbB1),EGFR (ErbB1),irreversible inhibitor
same,concentration at which HGF-induced cell growth of GCR-1 was inhibited,GCR-1,≥ 0.3 µM
same,tumor growth in ErbB2-overexpressing adenocarcinoma xenografted mice,[5],potently inhibited
"C=CC(=O)Nc1cc(Nc2nccc(-c3c[nH]c4ccccc34)n2)c(OC)cc1N(C)CCN(C)C [AZ5104, N-(5-(4-(1H-indol-3-yl)pyrimidin-2-ylamino)-2-((2-(dimethylamino)ethyl)(methyl)amino)-4-methoxyphenyl)acrylamide]",concentration at which cell growth of MKN45 was inhibited,MKN45,≥ 1 µM
same,inhibitory activity against mutant EGFR,mutant EGFR,inhibitory activity
same,inhibition of ErbB2 (HER2),ErbB2 (HER2),inhibitory activities
same,HB-EGF-induced cell growth of normal human gastric fibroblasts,[2],inhibited
same,inhibition of ErbB4 (HER4),ErbB4 (HER4),inhibitory activities
same,mice alive 11 weeks after the gastric cancer cell transplantation,[6],all died
same,mice alive seven weeks after the gastric cancer cell transplantation,[6],one
same,t-test for numbers of mice alive 11 weeks after transplantation compared with the control group,[6],significant differences
same,concentration at which HGF-induced cell growth of MKN7 was inhibited,MKN7,≥ 0.3 µM
same,HB-EGF-induced cell growth of GCIY,GCIY,inhibited
same,HGF-induced cell growth of GCIY,GCIY,inhibited
same,amphiregulin-induced cell growth of GCIY,GCIY,inhibited
same,baseline cell growth of GCIY,GCIY,inhibited
same,HB-EGF-induced cell growth of NUGC4,NUGC4,inhibited
same,HGF-induced cell growth of NUGC4,NUGC4,inhibited
same,amphiregulin-induced cell growth of NUGC4,NUGC4,inhibited
same,inhibition of EGFR (ErbB1),EGFR (ErbB1),inhibitory activities
same,concentration at which HGF-induced cell growth of GCR-1 was inhibited,GCR-1,≥ 0.3 µM
same,tumor growth in mice transplanted with non-small cell lung cancer with EGFR EX20Ins mutation,[7],inhibit
"CC(C)(O)CC(=O)NCCn1ccc2ncnc(Nc3ccc(Oc4cccc(C(F)(F)F)c4)c(Cl)c3)c21 [TAK-285, N-(2-(4-(3-chloro-4-(3-(trifluoromethyl)phenoxy)phenylamino)-5H-pyrrolo[3,2-d]pyrimidin-5-yl)ethyl)-3-hydroxy-3-methylbutanamide]",inhibition of ErbB2 (HER2),ErbB2 (HER2),inhibit
same,inhibition of ErbB4 (HER4),ErbB4 (HER4),inhibit
COc1cc2ncnc(Nc3ccc(F)c(Cl)c3)c2cc1NC(=O)/C=C/CN1CCCCC1 [dacomitinib],inhibition of ErbB2 (HER2),ErbB2 (HER2),inhibit
same,inhibition of ErbB4 (HER4),ErbB4 (HER4),inhibit
same,inhibition of EGFR (ErbB1),EGFR (ErbB1),inhibit
CS(=O)(=O)CCNCc1ccc(-c2ccc3ncnc(Nc4ccc(OCc5cccc(F)c5)c(Cl)c4)c3c2)o1 [lapatinib],inhibition of ErbB2 (HER2),ErbB2 (HER2),inhibit
same,inhibition of ErbB4 (HER4),ErbB4 (HER4),inhibit
"C=CC(=O)Nc1cc(Nc2nccc(-c3cn(C)c4ccccc34)n2)c(OC)cc1N(C)CCN(C)C [osimertinib, 2-propenamide, N-[2-[[2-(dimethylamino)ethyl]methylamino]-4-methoxy-5-[[4-(1-methyl-1H-indol-3-yl)-2-pyrimidinyl]amino]phenyl]-]",inhibitory activity against mutant EGFR,mutant EGFR,inhibitory activity
same,inhibition of ErbB2 (HER2),ErbB2 (HER2),inhibitory activities
same,inhibition of ErbB4 (HER4),ErbB4 (HER4),inhibitory activities
same,mice alive 11 weeks after the gastric cancer cell transplantation,[6],2 mice
same,t-test for numbers of mice alive 11 weeks after transplantation compared with the control group,[6],significant differences
same,tumor growth in mice transplanted with non-small cell lung cancer with EGFR EX20Ins mutation,[7],inhibit
"C=CC(=O)N1CCC(Oc2cc3c(Nc4ccc(Cl)c(Cl)c4F)ncnc3cc2OC)CC1 [poziotinib, 1-(4-(4-(3,4-dichloro-2-fluorophenylamino)-7-methoxyquinazolin-6-yloxy)piperidin-1-yl)prop-2-en-1-one]",inhibition of ErbB2 (HER2),ErbB2 (HER2),inhibit
same,inhibition of ErbB4 (HER4),ErbB4 (HER4),inhibit
same,inhibition of EGFR (ErbB1),EGFR (ErbB1),inhibit
C[C@@H](c1ccc2nccn2c1)n1nnc2ncc(-c3cnn(C)c3)nc21 [savolitinib],mice alive 11 weeks after the gastric cancer cell transplantation,[6],all died
same,mice alive seven weeks after the gastric cancer cell transplantation,[6],2 mice
same,t-test for numbers of mice alive 11 weeks after transplantation compared with the control group,[6],no significant difference

# — patent publication US20220008419A1, “PHARMACEUTICAL COMPOSITION FOR TREATING DIFFUSE-TYPE GASTRIC CANCER” (KANAZAWA MEDICAL UNIVERSITY, priority 2018, published 2022)
